Data on two compounds can be found in patent US4230692A, “Ravidomycin and process of preparation” (Ayerst McKenna & Harrison, Inc., priority 1978, dated 1980).

For one data set, the system named is mice. Briefly: Acute intraperitoneal LD50 in mice. The settings on record: acute, i.p., per body weight.
A short description of data set [1]: Acute intraperitoneal LD50 in mice. The settings on record: mouse, in vivo, ip, LD50, acute, per body weight.
A short description of data set [2]: Solubility in organic solvents.
The test system of another data set is colon 38 tumor. Nature of the data set: Colon 38 tumor weight in mice. The class given is in vivo. The settings on record: dose level 25 mg/kg; evaluated on 20th day of implantation in mice. The protocol:
(j) Ravidomycin causes 50% reduction in colon 38 tumor weight at dose level of 25 mg/kg. evaluated on 20th day of implantation in mice.

For data set [3], the system named is Streptomyces ravidus NRRL 11,300. Briefly: Streptomycin resistance of the producing organism. The settings on record: 10 μg streptomycin per ml.

For orientation: LD50 means the dose at which mortality reaches 50%. A high value points to lower toxicity.

Take `C=Cc1cc(OC)c2c(c1)c(=O)oc1c2cc(OC)c2c(O)ccc(C3OC(C)C(OC(C)=O)C(N(C)C)C3O)c21` (centres unmarked) [ravidomycin]: the LD50 result in the data set on mice was “greater than 400 mg/kg”; in the data set on mice (listed as Ravidomycin), 400 mg/kg; in data set [1], over 400 mg/kg. Besides, the solubility result is on record as “soluble” in data set [2] (in acetone, methanol, ethanol, chloroform) and “sparingly soluble” in data set [2] (in diethyl ether). The “reduction in colon 38 tumor weight” value in the data set with colon 38 tumor was determined as 50%.
Regarding `[H]/N=C(/N)N[C@H]1[C@H](O)[C@@H](O)[C@H](O[C@@H]2O[C@@H](C)[C@](O)(C=O)[C@H]2O[C@@H]2O[C@@H](CO)[C@H](O)[C@@H](O)[C@@H]2NC)[C@@H](N/C(N)=N\[H])[C@@H]1O` [streptomycin], the “resistance of Streptomyces ravidus to streptomycin” value in data set [3] is on record as “resistant”; in data set [3] (listed as Streptomycin), “Resistant”.
